Source: patent publication US20220372014A1, “NEUROPROTECTIVE COMPOUNDS AND METHODS OF USE THEREOF” (The Johns Hopkins University, priority 2019, published 2022)

Key:
MIF = target: T1, MIF (Homo sapiens, UniProt P14174); assay: Nuclease assay of Example 3 (MIF inhibitory activity, Table 4); format: biochemical; set-up: (%) inhibition of MIF nuclease activity: concentration or dose not given beside the values; conditions: nuclease assay of Example 3
T1 sequence (P14174 1-115): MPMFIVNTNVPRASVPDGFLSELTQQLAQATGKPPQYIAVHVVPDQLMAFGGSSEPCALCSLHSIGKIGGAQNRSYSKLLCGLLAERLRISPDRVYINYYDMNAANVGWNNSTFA
How it was run: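 Human genomic DNA (200 ng), pcDNA (200 ng) or PS^30-type substrates (1 μM) were incubated with MIF (0.25-8 μM final) in 10 mM Tris-HCl pH 7.0, 10 mM MgCl2, 1 mM DTT at 37 °C for 1 h (pcDNA, small substrates) or 4 h (genomic DNA). Cleavage was assessed by agarose or PAGE electrophoresis with EtBr staining and chemiluminescent detection of biotin-labelled DNA.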

[1] = system: HeLa cells or neuronal cells; assay: Cell death assay of Example 3 (MNNG, alamarBlue; protection against parthanatos, Table 4); format: cell-based; conditions: 1 μM test compound, MNNG-induced cell death, alamarBlue
How it was run: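 HeLa or neuronal cells (1×10^4/well) were pretreated 1 h at 37° C with 1 μM compound, exposed to MNNG for 15 min, washed, then re-incubated 18 h with 1 μM compound. Viability was read by alamarBlue fluorescence (ex 560/em 590 nm). Cell death was expressed relative to control wells.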

Compound | (%) inhibition of MIF nuclease activity (MIF) | (%) inhibition of cell death [1]
COc1ccc(CC[C@H]2OC(=O)[C@@H]3CCCCN3C(=O)C(=O)C(C)(C)COC(=O)C=CCCN(C)C(=O)[C@@H](CC(C)C)NC(=O)[C@H](COC(C)(C)C)N(C)C(=O)C(c3ccccc3)NC(=O)CN(C)C(=O)COc3cccc2c3)cc1OC (stereo partly shown) [compound 37] | 18.0% | 59.6%
COc1ccc(CC[C@H]2OC(=O)[C@@H]3CCCCN3C(=O)C(=O)C(C)(C)COC(=O)C=CCCN(C)C(=O)[C@H](C)NC(=O)[C@H](COC(C)(C)C)N(C)C(=O)C(c3ccccc3)NC(=O)[C@H](C)N(C)C(=O)COc3cccc2c3)cc1OC (stereo partly shown) [compound 47] | 52.3% | 54.2%
COc1ccc(CC[C@H]2OC(=O)[C@@H]3CCCCN3C(=O)C(=O)C(C)(C)COC(=O)C=CCCN(C)C(=O)[C@H](Cc3ccc(F)cc3)NC(=O)[C@H](COC(C)(C)C)N(C)C(=O)[C@H](Cc3ccc4ccccc4c3)NC(=O)[C@H](C)N(C)C(=O)COc3cccc2c3)cc1OC [compound 25] | 25.8% | 59.1%
COc1ccc(CC[C@H]2OC(=O)[C@@H]3CCCCN3C(=O)C(=O)C(C)(C)COC(=O)C=CCCN(C)C(=O)C(c3ccccc3)NC(=O)[C@H](COC(C)(C)C)N(C)C(=O)[C@H](Cc3ccc4ccccc4c3)NC(=O)[C@H](C)N(C)C(=O)COc3cccc2c3)cc1OC (stereo partly shown) [compound 30] | 18.6% | 51.5%
COc1ccc(CC[C@H]2OC(=O)[C@@H]3CCCCN3C(=O)C(=O)C(C)(C)COC(=O)C=CCCN(C)C(=O)[C@H](Cc3ccc4ccccc4c3)NC(=O)[C@H](COC(C)(C)C)N(C)C(=O)C(c3ccccc3)NC(=O)CN(C)C(=O)COc3cccc2c3)cc1OC (stereo partly shown) [compound 43] | 45.6% | 54.8%
COc1ccc(CC[C@H]2OC(=O)[C@@H]3CCCCN3C(=O)C(=O)C(C)(C)COC(=O)C=CCCN(C)C(=O)[C@H](Cc3ccc(F)cc3)NC(=O)[C@H](COC(C)(C)C)N(C)C(=O)C(c3ccccc3)NC(=O)CN(C)C(=O)COc3cccc2c3)cc1OC (stereo partly shown) [compound 40] | 37.4% | 53.8%
COc1ccc(CC[C@H]2OC(=O)[C@@H]3CCCCN3C(=O)C(=O)C(C)(C)COC(=O)C=CCCN(C)C(=O)[C@@H](CC(C)C)NC(=O)[C@H](COC(C)(C)C)N(C)C(=O)[C@@H](CC(C)C)NC(=O)CN(C)C(=O)COc3cccc2c3)cc1OC [compound 7] | 30.1% | 54.5%
COc1ccc(CC[C@H]2OC(=O)[C@@H]3CCCCN3C(=O)C(=O)C(C)(C)COC(=O)C=CCCN(C)C(=O)C(c3ccccc3)NC(=O)[C@H](COC(C)(C)C)N(C)C(=O)[C@@H](CC(C)C)NC(=O)CN(C)C(=O)COc3cccc2c3)cc1OC (stereo partly shown) [compound 15] | 8.7% | 53.4%
COc1ccc(CC[C@H]2OC(=O)[C@@H]3CCCCN3C(=O)C(=O)C(C)(C)COC(=O)C=CCCN(C)C(=O)[C@@H]3CCCN3C(=O)[C@H](COC(C)(C)C)N(C)C(=O)[C@H](c3ccccc3)NC(=O)[C@H](C)N(C)C(=O)COc3cc(F)cc2c3)cc1OC (racemic) [compound 154] | 38.2% | 46.2%
COc1ccc(CC[C@H]2OC(=O)[C@@H]3CCCCN3C(=O)C(=O)C(C)(C)COC(=O)C=CCCN(C)C(=O)[C@H]3CCCN3C(=O)[C@H](COC(C)(C)C)N(C)C(=O)C(c3ccccc3)NC(=O)[C@H](C)N(C)C(=O)COc3cccc2c3)cc1OC (stereo partly shown) [compound 91] | 25.8% | 62.7%
COc1ccc(CC[C@H]2OC(=O)[C@@H]3CCCCN3C(=O)C(=O)C(C)(C)COC(=O)C=CCCN(C)C(=O)[C@H](c3ccccc3)NC(=O)[C@H](COC(C)(C)C)N(C)C(=O)C(c3ccccc3)NC(=O)CN(C)C(=O)COc3cccc2c3)cc1OC (stereo partly shown) [compound 45] | 15.4% | 51.9%
COCC[C@@H]1NC(=O)[C@H](COC(C)(C)C)N(C)C(=O)C(c2ccccc2)NC(=O)CN(C)C(=O)COc2cccc(c2)[C@@H](CCc2ccc(OC)c(OC)c2)OC(=O)[C@@H]2CCCCN2C(=O)C(=O)C(C)(C)COC(=O)C=CCCN(C)C1=O (stereo partly shown) [compound 35] | 21.5% | 56.3%
COc1ccc(CC[C@H]2OC(=O)[C@@H]3CCCCN3C(=O)C(=O)C(C)(C)COC(=O)C=CCCN(C)C(=O)[C@H](C(C)C)NC(=O)[C@H](COC(C)(C)C)N(C)C(=O)[C@@H](CC(C)C)NC(=O)CN(C)C(=O)COc3cccc2c3)cc1OC [compound 14] | 11.2% | 41.6%
COc1ccc(CC[C@H]2OC(=O)[C@@H]3CCCCN3C(=O)C(=O)C(C)(C)COC(=O)C=CCCN(C)C(=O)[C@@H](Cc3ccccc3)NC(=O)[C@H](COC(C)(C)C)N(C)C(=O)C(c3ccccc3)NC(=O)CN(C)C(=O)COc3cccc2c3)cc1OC (stereo partly shown) [compound 39] | 31.1% | 57.5%

Second part, led by results:

(%) inhibition of MIF nuclease activity (MIF) | Compound | (%) inhibition of cell death [1]
25.3% | COc1ccc(CC[C@H]2OC(=O)[C@@H]3CCCCN3C(=O)C(=O)C(C)(C)COC(=O)C=CCCN(C)C(=O)[C@@H]3CCCN3C(=O)[C@H](Cc3ccccc3)N(C)C(=O)[C@@H](C)NC(=O)CN(C)C(=O)COc3cccc2c3)cc1OC [compound 71] | 57.0%
31.5% | COc1ccc(CC[C@H]2OC(=O)[C@@H]3CCCCN3C(=O)C(=O)C(C)(C)COC(=O)C=CCCN(C)C(=O)[C@H](C(C)C)NC(=O)[C@H](Cc3ccccc3)N(C)C(=O)[C@@H](C)NC(=O)CN(C)C(=O)COc3cccc2c3)cc1OC [compound 74] | 52.6%
34.9% | COc1ccc(CC[C@H]2OC(=O)[C@@H]3CCCCN3C(=O)C(=O)C(C)(C)COC(=O)C=CCCN(C)C(=O)[C@H](c3ccccc3)NC(=O)[C@H](Cc3ccccc3)N(C)C(=O)[C@@H](C)NC(=O)CN(C)C(=O)COc3cccc2c3)cc1OC [compound 75] | 52.8%
13.2% | COc1ccc(CC[C@H]2OC(=O)[C@@H]3CCCCN3C(=O)C(=O)C(C)(C)COC(=O)C=CCCN(C)C(=O)[C@@H]3CCCN3C(=O)[C@H](COC(C)(C)C)N(C)C(=O)[C@H](Cc3ccncc3)NC(=O)[C@H](C)N(C)C(=O)COc3cccc2c3)cc1OC [compound 104] | 20.4%
12.6% | COc1ccc(CC[C@H]2OC(=O)[C@@H]3CCCCN3C(=O)C(=O)C(C)(C)COC(=O)C=CCCN(C)C(=O)[C@H](C(C)C)NC(=O)[C@H](C(C)C)N(C)C(=O)[C@@H](Cc3ccccc3)NC(=O)[C@H](CC(C)C)N(C)C(=O)CCC(=O)Nc3cccc2c3)cc1OC [compound 89] | 49.9%
20.7% | COc1ccc(CC[C@H]2OC(=O)[C@@H]3CCCCN3C(=O)C(=O)C(C)(C)COC(=O)C=CCCN(C)C(=O)[C@@H](Cc3ccccc3)NC(=O)[C@H](Cc3ccccc3)N(C)C(=O)[C@@H](C)NC(=O)CN(C)C(=O)COc3cccc2c3)cc1OC [compound 69] | 55.7%
22.7% | COc1ccc(CC[C@H]2OC(=O)[C@@H]3CCCCN3C(=O)C(=O)C(C)(C)COC(=O)C=CCCN(C)C(=O)[C@@H]3CCCN3C(=O)[C@H](C(C)C)N(C)C(=O)[C@@H](Cc3ccccc3)NC(=O)[C@H](CC(C)C)N(C)C(=O)CCC(=O)Nc3cccc2c3)cc1OC [compound 86] | 53.0%
6.7% | CCC[C@@H]1NC(=O)[C@H](C(C)C)N(C)C(=O)[C@@H](Cc2ccccc2)NC(=O)[C@H](CC(C)C)N(C)C(=O)CCC(=O)Nc2cccc(c2)[C@@H](CCc2ccc(OC)c(OC)c2)OC(=O)[C@@H]2CCCCN2C(=O)C(=O)C(C)(C)COC(=O)C=CCCN(C)C1=O [compound 79] | 43.4%
−2.4% | COc1ccc(CC[C@H]2OC(=O)[C@@H]3CCCCN3C(=O)C(=O)C(C)(C)COC(=O)C=CCCN(C)C(=O)[C@@H]3CCCN3C(=O)[C@H](COC(C)(C)C)N(C)C(=O)C(c3ccccc3)NC(=O)[C@H](C)N(C)C(=O)COc3cc2ccc3F)cc1OC (stereo partly shown) [compound 114] | 44.9%
21.2% | COc1ccc(CC[C@H]2OC(=O)[C@@H]3CCCCN3C(=O)C(=O)C(C)(C)COC(=O)C=CCCN(C)C(=O)[C@H](CC3CCCCC3)NC(=O)[C@H](Cc3ccccc3)N(C)C(=O)[C@@H](C)NC(=O)CN(C)C(=O)COc3cccc2c3)cc1OC [compound 72] | 55.3%
18.4% | COc1ccc(CC[C@H]2OC(=O)[C@@H]3CCCCN3C(=O)C(=O)C(C)(C)COC(=O)C=CCCN(C)C(=O)[C@H](CC3CCCCC3)NC(=O)[C@H](COC(C)(C)C)N(C)C(=O)C(c3ccccc3)NC(=O)[C@H](C)N(C)C(=O)COc3cccc2c3)cc1OC (stereo partly shown) [compound 57] | 59.3%
18.0% | COCC[C@@H]1NC(=O)[C@H](COC(C)(C)C)N(C)C(=O)C(c2ccccc2)NC(=O)[C@H](C)N(C)C(=O)COc2cccc(c2)[C@@H](CCc2ccc(OC)c(OC)c2)OC(=O)[C@@H]2CCCCN2C(=O)C(=O)C(C)(C)COC(=O)C=CCCN(C)C1=O (stereo partly shown) [compound 50] | 56.4%
